Results on 31 compounds are retold here after patent US20080221114A1, “2-(Cyclic Aminocarbonyl) Indoline Derivative and Medicinal Composition Containing the Same” (priority 2005, published 2008).

Usually IC50 stands for the concentration at which inhibition is half-maximal. A low value points to greater potency in that assay. A word on the melting point: it is the temperature, or range, at which the solid turns liquid.

The target of data set [1] is T1, mitochondrial benzodiazepine receptor (MBR) (Rattus norvegicus, UniProt P16257).
T1 construct: from tissue; host or cells: kidney of male Wistar rats (crude membrane preparation)
Put plainly: Binding assay of mitochondrial benzodiazepine receptor (MBR), [3H]4'-chlorodiazepam (Ro5-4864), rat kidney membrane-preparation. As to conditions: rat kidney membranes, [3H]4'-chlorodiazepam 0.5 nM, 0° C. for 150 minutes. The method, then: The binding assay of central-type benzodiazepine receptor (CBR) and the preparation of receptor membrane-preparation were carried out according to the partially modified method of Braestrup, C. et al. [see; Br. J. Psychiatry, 133, 249-260 (1978)] with a minor modification; the binding assay of mitochondrial benzodiazepine receptor (MBR) and the preparation of receptor membrane-preparation were carried out according to the method of Schoemaker, H [see; J. Pharmacol. Exp. Ther., 225, 61-69 (1983)] with a minor modification.
CBR and MBR membrane-preparations were prepared from forebrain (CBR) and kidney (MBR) of male Wistar strain rats according to the following procedure, respectively.
To the forebrain of rat, 20 volumes of ice-cold 0.32 M sucrose solution to wet-weight of the tissue (1:20, wet-weight/vol) was added and homogenized, and then the homogenate was centrifuged at 900×g for 10 minutes. The supernatant was centrifuged at 11,500×g for 20 minutes, a buffer I for the binding assay (50 mM Tris-hydrochloric acid buffer, pH 7.5) was added to the resultant precipitate, and the mixture was homogenized, and then it was centrifuged at 30,000×g for 10 minutes. The resulting precipitate was washed 3 times according to the same operation, suspended in the buffer I (1 g of wet-weight of tissue/10 ml) and used as a CBR membrane-preparation for the binding assay. The CBR membrane-preparation was stored at −80° C. until use, and on the day of the assay, it was thawed and suspended in the buffer for use. On the other hand, kidney of rat was homogenized in 20 volumes of ice-cold buffer II for the binding assay to wet-weight of the tissue (1:20, wet-weight/vol) (50 mM sodium phosphate-potassium phosphate buffer solution containing 100 mM sodium chloride, pH 7.4), and then filtrated through 4 layers of gauze, and the filtrate was centrifuged at 40,000×g for 20 minutes. The resulting precipitate was suspended in the buffer II (1 g of wet-weight of tissue/50 ml) and used as a MBR membrane-preparation for the binding assay.
As a labeled ligand and a non-labeled ligand, [^3H]flunitrazepam (final concentration: 1 nM) and diazepam (final concentration: 20 μM) were used respectively, for the CBR binding assay, and [^3H]4′-chlorodiazepam (Ro5-4864, chemical name: 7-chloro-1,3-dihydro-1-methyl-5-(4-chloro-phenyl)-2H-1,4-[…]) (final concentration: 0.5 nM) and diazepam (final concentration: 50 μM) were used respectively, for the MBR binding assay. The binding assay of CBR was carried out by incubating at 0° C. for 30 minutes, while that of MBR was at 0° C. for 150 minutes.
The receptor binding assay was carried out in the following procedure. The test compound which the concentration was known, a tritium labeled ligand, a receptor membrane-preparation and the buffer I or II for the binding assay were added to a 96-well microplate in the total volume was 0.2 ml, and when the receptor membrane-preparation was added, the reaction started. After the incubation, the labeled ligand binding to the receptor was filtrated through a filter plate (UNI FILTER-96GF/B, PerkinElmer, the U.S.) using a cell harvester (PerkinElmer, the U.S.) to stop the reaction. The filter was immediately washed 6 times with 0.3 ml of the ice-cold buffer [50 mM Tris-hydrochloric acid buffer (pH 7.7)]. After 30 μl of liquid scintillation cocktail (MICROSCINTI 20, PerkinElmer, the U.S.) was added to each well on the dried filter plate, the radioactivity was measured with a TopCount. The specific binding amount was obtained by subtracting the non-specific binding amount which was simultaneously measured in the presence of non-labeled ligand from the total binding amount. The concentration that the test compound could decrease the specific binding amount of the labeled ligand to 50% of the amount (IC50 value) was analyzed using nonlinear least-squares method.

As for `O=C(C1Cc2ccccc2N1c1ncccn1)N1CCCC(F)(F)C1` (racemic) [Example 48], the melting point is 172 to 174 °C. Further, the IC50 in data set [1] is 77 nM.
Taken in the same sequence, the figures for `COc1ccc2c(c1)CC(C(=O)N1CCCC(C)C1)N2c1ccc(=O)n(C)n1` (racemic) [Example 134] were 248 to 250 °C and 33.8 nM.
`COc1ccc2c(c1)N(c1ccc(=O)n(C)n1)C(C(=O)N1CCCC(C)C1)C2` (racemic) [Example 135] showed a melting point of 182 to 184 °C. The IC50 in data set [1] worked out at 13.5 nM.
The compound `COc1ccc2c(c1)N(c1ccc(Cl)nn1)C(C(=O)N1CCC[C@H](C)C1)C2` (some centres unmarked) [Example 70] yielded a melting point of 184 to 186 °C. This compound had a half-maximal inhibitory concentration (IC50) in data set [1] of 2.45 nM.
The matching figures for `C[C@@H]1CCCN(C(=O)[C@@H]2Cc3ccccc3N2c2ccc(=O)n(C)n2)C1` [Example 122]: 191 to 193 °C and 26.8 nM.
Taken in the same sequence, the figures for `C[C@H]1CCCN(C(=O)[C@@H]2Cc3ccccc3N2c2ccc(=O)n(CCF)n2)C1` [Example 128, (S)-1-[1-(2-fluoroethyl)-6-oxo-1,6-dihydropyridazin-3-yl]-2-[[(S)-3-methylpiperidin-1-yl]carbonyl]indoline] were 229 to 230 °C and 3.91 nM.
Compound `C[C@H]1CCCN(C(=O)[C@@H]2Cc3ccccc3N2c2cnn(C)c(=O)c2)C1` [Example 83] gave a melting point of 150 to 152 °C. The IC50 in data set [1] was 9.33 nM.
The compound `O=C(C1Cc2ccccc2N1c1ncccn1)N1CCCCC1` (centres unmarked) [Example 7] showed a melting point of 149 to 151 °C. Also, in data set [1], the IC50 stood at 123 nM.
Taken in the same sequence, the figures for `C[C@@H]1C[C@H](C)CN(C(=O)[C@@H]2Cc3ccccc3N2c2ccc(Cl)nn2)C1` [Example 36] were 182 to 184 °C and 1.28 nM.
Taken in the same sequence, the figures for `C[C@@H]1C[C@H](C)CN(C(=O)[C@@H]2Cc3ccccc3N2c2nccc3ccccc23)C1` [Example 13] were 173 to 175 °C and 2.08 nM.
The matching figures for `C[C@@H]1CCCN(C(=O)[C@@H]2Cc3ccccc3N2c2ncccn2)C1` [Example 22]: 151 to 153 °C and 19.3 nM.
Consider `Cn1nc(N2c3ccccc3C[C@H]2C(=O)N2CCCCC2)ccc1=O` [Example 107, (S)-1-(1-methyl-6-oxo-1,6-dihydropyridazin-3-yl)-2-(1-piperidinylcarbonyl)indoline], for which the melting point was in the range of 225 to 227 °C. The same compound yielded an IC50 in data set [1] of 28.5 nM.
Taken in the same sequence, the figures for `C[C@H]1CCCN(C(=O)[C@@H]2Cc3ccccc3N2c2ccc(=O)n(Cc3ccccc3)n2)C1` [Example 123, (S)-1-(1-benzyl-6-oxo-1,6-dihydropyridazin-3-yl)-2-[[(S)-3-methylpiperidin-1-yl]carbonyl]indoline] were 220 to 222 °C and 1.45 nM.
With `COc1cccc2c1CC(C(=O)N1CCCC(C)C1)N2c1ccc(=O)n(C)n1` (racemic) [Example 133], the melting point lay in the range of 181 to 182 °C. The same compound returned an IC50 in data set [1] of 3.95 nM.
Taken in the same sequence, the figures for `C[C@@H]1C[C@H](C)CN(C(=O)C2Cc3ccccc3N2c2ccc(F)cn2)C1` (relative stereo) [Example 10] were 139 to 141 °C and 1.14 nM.
Consider `O=C(C1Cc2ccccc2N1c1ncccn1)N1CCCC(CO)C1` (racemic) [Example 50], for which the melting point lay in the range of 124 to 128 °C. Further, in data set [1], the IC50 worked out at 92.6 nM.
For the compound `C[C@@H]1CCCN(C(=O)[C@@H]2Cc3ccccc3N2c2cccnn2)C1` [Example 62], the melting point lay within 169 to 172 °C. In addition, the IC50 in data set [1] worked out at 12.2 nM.
Take `C[C@H]1CCCN(C(=O)[C@@H]2Cc3ccccc3N2c2nc3ccccc3o2)C1` [Example 17, (S)-1-(1,3-benzoxazol-2-yl)-2-[[(S)-3-methylpiperidin-1-yl]carbonyl]indoline]: the melting point lay within 191 to 193 °C. This compound also showed an IC50 in data set [1] of 0.638 nM.
As for `C[C@H]1CCCN(C(=O)C2Cc3cc(F)ccc3N2c2ccc(Cl)nn2)C1` (some centres unmarked) [Example 67], the melting point was 164 to 168 °C. In addition, in data set [1], the IC50 came to 1.56 nM.
As to `C[C@H]1CCCN(C(=O)[C@@H]2Cc3cc(Cl)ccc3N2c2cccnn2)C1` [Example 91], the melting point was 175 to 177 °C. Also, the IC50 in data set [1] stood at 2.31 nM.
The matching figures for `C[C@H]1CCCN(C(=O)[C@@H]2Cc3ccccc3N2c2ccc(=O)n(CC(F)F)n2)C1` [Example 127]: 173 to 175 °C and 1.97 nM.
The matching figures for `CC1CCCN(C(=O)[C@@H]2Cc3ccccc3N2c2cnccn2)C1` (some centres unmarked) [Example 59]: 177 to 179 °C and 12.9 nM.
The matching figures for `CC1CCCN(C(=O)C2Cc3cc(F)ccc3N2c2cccnn2)C1` (racemic) [Example 84]: 155 to 157 °C and 5.58 nM.
As to `C[C@H]1CCCN(C(=O)[C@@H]2Cc3ccccc3N2c2ccc(=O)n(CC3CCCCC3)n2)C1` [Example 77], the melting point lay within 215 to 217 °C. In data set [1], this compound registered an IC50 of 3.15 nM.
The matching figures for `COc1ccc(N2c3ccccc3C[C@H]2C(=O)N2CCC[C@H](C)C2)nn1` [Example 73, (S)-1-(6-Methoxypyridazin-3-yl)-2-[[(S)-3-methylpiperidin-1-yl]carbonyl]indoline]: 134 to 137 °C and 3.35 nM.
For `Cc1ccc(N2c3ccccc3C[C@H]2C(=O)N2CCC[C@H](C)C2)nn1` [Example 37], the melting point lay within 192 to 194 °C. The IC50 in data set [1] worked out at 3.23 nM.
The matching figures for `C[C@H]1CCCN(C(=O)[C@@H]2Cc3ccccc3N2c2nc3ccccc3s2)C1` [Example 14]: 165 to 166 °C and 0.823 nM.
Taken in the same sequence, the figures for `C[C@@H]1C[C@H](C)CN(C(=O)[C@@H]2Cc3ccccc3N2c2cnc3ccccc3n2)C1` [Example 27] were 156 to 157 °C and 1.66 nM.
The matching figures for `C=Cc1ccc2c(c1)C[C@@H](C(=O)N1CCC[C@H](C)C1)N2c1cccnn1` [Example 98]: 103 to 106 °C and 44.3 nM.
In turn, `C[C@@H]1C[C@H](C)CN(C(=O)[C@@H]2Cc3ccccc3N2c2nc3ccccc3s2)C1` [Example 15] returned a melting point of 170 to 173 °C. Also, in data set [1], the 50% inhibitory concentration (IC50) was determined as 1.46 nM.
The matching figures for `C[C@@H]1C[C@H](C)CN(C(=O)[C@H]2Cc3ccccc3N2c2ncccn2)C1` [Example 42]: 159 to 160 °C and 14.3 nM.
